From ChEMBL document CHEMBL5260845, “Flavone-based arylamides as potential anticancers: Design, synthesis and in vitro cell-based/cell-free evaluations” (2020)
The source made the active and inactive calls. No cut-off for these calls is given here.

Columns and labels:
NCI-H522 = test: Antiproliferative activity against human NCI-H522 cells assessed as cell growth inhibition at 10 uM by SRB assay; format: functional, cell-based
CCRF-CEM [1] = test: Antiproliferative activity against human CCRF-CEM cells assessed as cell growth inhibition at 10 uM by SRB assay; format: functional, cell-based
K562 [2] = test: Antiproliferative activity against human K562 cells assessed as cell growth inhibition at 10 uM by SRB assay; format: functional, cell-based
EKVX = test: Antiproliferative activity against human EKVX cells assessed as cell growth inhibition at 10 uM by SRB assay; format: functional
SF-295 [3] = test: Antiproliferative activity against human SF-295 cells assessed as cell growth inhibition at 10 uM by SRB assay; format: functional, cell-based
UO-31 = test: Antiproliferative activity against human UO-31 cells assessed as inhibition of cell growth at 10 uM by SRB assay relative to control; format: functional
MOLT-4 [4] = test: Antiproliferative activity against human MOLT-4 cells assessed as cell growth inhibition at 10 uM by SRB assay; format: functional, cell-based
UACC-257 = test: Antiproliferative activity against human UACC-257 cells assessed as cell growth inhibition at 10 uM by SRB assay relative to control; format: functional
UACC-62 = test: Antiproliferative activity against human UACC-62 cells assessed as cell growth inhibition at 10 uM by SRB assay relative to control; format: functional
RPMI-8226 [5] = test: Antiproliferative activity against human RPMI-8226 cells assessed as cell growth inhibition at 10 uM by SRB assay; format: functional, cell-based
HOP-92 = test: Antiproliferative activity against human HOP-92 cells assessed as cell growth inhibition at 10 uM by SRB assay; format: functional, cell-based
SK-MEL-2 = test: Antiproliferative activity against human SK-MEL-2 cells assessed as cell growth inhibition at 10 uM by SRB assay relative to control; format: functional; conditions: Homo sapiens, SK-MEL-2, dose 10 µM
NCI-H226 = test: Antiproliferative activity against human NCI-H226 cells assessed as cell growth inhibition at 10 uM by SRB assay; format: functional
NCI-H23 = test: Antiproliferative activity against human NCI-H23 cells assessed as cell growth inhibition at 10 uM by SRB assay; format: functional
SR [6] = test: Antiproliferative activity against human SR cells assessed as cell growth inhibition at 10 uM by SRB assay; format: functional, cell-based
Hs-578T = test: Antiproliferative activity against human Hs-578T cells assessed as inhibition of cell growth at 10 uM by SRB assay; format: functional, cell-based
HL-60 [7] = test: Antiproliferative activity against human HL-60 cells assessed as cell growth inhibition at 10 uM by SRB assay; format: functional, cell-based
T47D = test: Antiproliferative activity against estrogen receptor positive human T47D cells assessed as inhibition of cell growth at 10 uM by SRB assay relative to control; format: functional
RPMI-8226 [8] = test: Antiproliferative activity against human RPMI-8226 cells assessed as cell growth inhibition at 10 uM by SRB assay relative to control; format: functional
HL-60 [9] = test: Antiproliferative activity against human HL-60 cells assessed as cell growth inhibition at 10 uM by SRB assay relative to control; format: functional
SR [10] = test: Antiproliferative activity against human SR cells assessed as cell growth inhibition at 10 uM by SRB assay relative to control; format: functional
K562 [11] = test: Antiproliferative activity against human K562 cells assessed as cell growth inhibition at 10 uM by SRB assay relative to control; format: functional
CCRF-CEM [12] = test: Antiproliferative activity against human CCRF-CEM cells assessed as cell growth inhibition at 10 uM by SRB assay relative to control; format: functional
MOLT-4 [13] = test: Antiproliferative activity against human MOLT-4 cells assessed as cell growth inhibition at 10 uM by SRB assay relative to control; format: functional
786-0 = test: Antiproliferative activity against human 786-0 cells assessed as inhibition of cell growth at 10 uM by SRB assay relative to control; format: functional
[14] = Antiproliferative activity against human colon cancer cells assessed as cell growth inhibition at 10 uM by SRB assay relative to control; format: functional; conditions: Colon carcinoma cell
Prostatic carcinoma cell = test: Antiproliferative activity against human prostatic carcinoma cells assessed as cell growth inhibition at 10 uM by SRB assay relative to control; format: functional
[15] = Antiproliferative activity against human hematologic cancer cells assessed as cell growth inhibition at 10 uM by SRB assay relative to control; format: functional
A549 = test: Antiproliferative activity against human A549 cells assessed as cell growth inhibition at 10 uM by SRB assay; format: functional, cell-based
NCI-H322M = test: Antiproliferative activity against human NCI-H322M cells assessed as cell growth inhibition at 10 uM by SRB assay; format: functional, cell-based
NCI-H460 = test: Antiproliferative activity against human NCI-H460 cells assessed as cell growth inhibition at 10 uM by SRB assay; format: functional, cell-based
HOP-62 = test: Antiproliferative activity against human HOP-62 cells assessed as cell growth inhibition at 10 uM by SRB assay; format: functional, cell-based
SNB-75 = test: Antiproliferative activity against human SNB-75 cells assessed as cell growth inhibition at 10 uM by SRB assay relative to control; format: functional
SF-295 [16] = test: Antiproliferative activity against human SF-295 cells assessed as cell growth inhibition at 10 uM by SRB assay relative to control; format: functional
RXF 393 = test: Antiproliferative activity against human RXF 393 cells assessed as inhibition of cell growth at 10 uM by SRB assay relative to control; format: functional

| Structure (SMILES) | inhibition (NCI-H522) | inhibition (CCRF-CEM [1]) | inhibition (K562 [2]) | inhibition at 10 µM (EKVX) [%] | inhibition (SF-295 [3]) | inhibition (UO-31) | inhibition (MOLT-4 [4]) | inhibition (RPMI-8226 [5]) | inhibition (HOP-92) | inhibition at 10 µM (SK-MEL-2) [%] | inhibition at 10 µM (NCI-H226) [%] | inhibition at 10 µM (NCI-H23) [%] | inhibition (SR [6]) | inhibition (Hs-578T) | inhibition (HL-60 [7]) | other results |
| --- | --- | --- | --- | --- | --- | --- | --- | --- | --- | --- | --- | --- | --- | --- | --- | --- |
| COc1cc2oc(-c3cccc(NC(=O)c4ccc(C)cc4)c3)cc(=O)c2c(OC)c1OC | Active | Active | Active | < 50 | Active | Active | Active | Active | Active | ≤ 46 | < 50 | < 50 | Active | Active | Active | inhibition at 10 µM (UACC-257): 56.1%; inhibition at 10 µM (UACC-62): 50.8% |
| COc1cc2oc(-c3cccc(NC(=O)c4ccc(F)cc4)c3)cc(=O)c2c(OC)c1OC | Active | Active | Active | < 50 | Active | Active | Active | Active | Active | ≤ 46 | < 50 | < 50 | Active | Active | Active | inhibition at 10 µM (T47D): 51.3% |
| COc1cc2oc(-c3ccc(NC(=O)c4ccc(Cl)cc4)cc3)cc(=O)c2c(OC)c1OC | Active | – | – | < 50 | Active | Active | – | – | Active | – | < 50 | < 50 | – | Active | – | inhibition at 10 µM (RPMI-8226 [8]): ≤ 42.6%; inhibition at 10 µM (HL-60 [9]): ≤ 42.6%; inhibition at 10 µM (SR [10]): ≤ 42.6%; inhibition at 10 µM (K562 [11]): ≤ 42.6%; inhibition at 10 µM (CCRF-CEM [12]): ≤ 42.6%; inhibition at 10 µM (MOLT-4 [13]): ≤ 42.6% |
| CNC(=O)c1cc(Oc2ccc(NC(=O)Nc3ccc(Cl)c(C(F)(F)F)c3)cc2)ccn1 [SORAFENIB] | – | – | – | – | – | – | – | – | – | – | – | – | – | – | – | inhibition at 10 µM (786-0): 84.5% |
| COc1cc2oc(-c3ccc(NC(=O)c4ccc(F)cc4)cc3)cc(=O)c2c(OC)c1OC | Active | – | – | < 50 | Active | Active | – | – | Active | – | < 50 | < 50 | – | Active | – | inhibition at 10 µM (RPMI-8226 [8]): ≤ 42.6%; inhibition at 10 µM (HL-60 [9]): ≤ 42.6%; inhibition at 10 µM (SR [10]): ≤ 42.6%; inhibition at 10 µM (K562 [11]): ≤ 42.6%; inhibition at 10 µM (CCRF-CEM [12]): ≤ 42.6%; inhibition at 10 µM (MOLT-4 [13]): ≤ 42.6% |
| COc1cc2oc(-c3cccc(NC(=O)c4cccc(Br)c4)c3)cc(=O)c2c(OC)c1OC | Active | Active | Active | < 50 | Active | Active | Active | Active | Active | ≤ 46 | < 50 | < 50 | Active | Active | Active | inhibition at 10 µM [14]: > 50%; inhibition at 10 µM (Prostatic carcinoma cell): > 50%; inhibition at 10 µM [15]: > 50%; inhibition at 10 µM (T47D): 72.3% |
| COc1cc2oc(-c3cccc(NC(=O)c4ccc(C#N)cc4)c3)cc(=O)c2c(OC)c1OC | Active | Active | Active | < 50 | Active | Active | Active | Active | Active | ≤ 46 | < 50 | < 50 | Active | Active | Active | inhibition (EKVX): Active; inhibition (A549): Active; inhibition (NCI-H322M): Active; inhibition (NCI-H460): Active; inhibition (NCI-H226): Active; inhibition (NCI-H23): Active; inhibition (HOP-62): Active |
| Cn1nnc2c(C(N)=O)ncn2c1=O [TEMOZOLOMIDE] | – | – | – | – | – | – | – | – | – | – | – | – | – | – | – | inhibition at 10 µM (SNB-75): 40.8%; inhibition at 10 µM (SF-295 [16]): 29.8% |
| COc1cc2oc(-c3cccc(C(=O)Nc4ccc(C#N)cc4)c3)cc(=O)c2c(OC)c1OC | Active | – | – | – | – | – | – | – | Active | – | – | – | – | – | – | inhibition (EKVX): Active; inhibition (A549): Active; inhibition (NCI-H322M): Active; inhibition (NCI-H460): Active; inhibition (NCI-H226): Active; inhibition (NCI-H23): Active; inhibition (HOP-62): Active |
| COc1cc2oc(-c3ccc(NC(=O)c4ccc(C(F)(F)F)cc4)cc3)cc(=O)c2c(OC)c1OC | Active | – | – | < 50 | Active | Active | – | – | Active | – | < 50 | < 50 | – | Active | – | inhibition at 10 µM (RPMI-8226 [8]): ≤ 42.6%; inhibition at 10 µM (HL-60 [9]): ≤ 42.6%; inhibition at 10 µM (SR [10]): ≤ 42.6%; inhibition at 10 µM (K562 [11]): ≤ 42.6%; inhibition at 10 µM (CCRF-CEM [12]): ≤ 42.6%; inhibition at 10 µM (MOLT-4 [13]): ≤ 42.6% |
| COc1cc2oc(-c3cccc(NC(=O)c4ccccc4Br)c3)cc(=O)c2c(OC)c1OC | Active | Active | Active | < 50 | Active | Active | Active | Active | Active | ≤ 46 | < 50 | < 50 | Active | Active | Active | – |
| COc1cc2oc(-c3cccc(NC(=O)c4cccc(C#N)c4)c3)cc(=O)c2c(OC)c1OC | Active | Active | Active | < 50 | Active | Active | Active | Active | Active | ≤ 46 | < 50 | < 50 | Active | Active | Active | – |
| COc1cc2oc(-c3ccc(NC(=O)c4ccc(C)cc4)cc3)cc(=O)c2c(OC)c1OC | Active | – | – | < 50 | Active | Active | – | – | Active | ≤ 46 | < 50 | < 50 | – | Active | – | inhibition at 10 µM (RPMI-8226 [8]): ≤ 42.6%; inhibition at 10 µM (HL-60 [9]): ≤ 42.6%; inhibition at 10 µM (SR [10]): ≤ 42.6%; inhibition at 10 µM (K562 [11]): ≤ 42.6%; inhibition at 10 µM (CCRF-CEM [12]): ≤ 42.6%; inhibition at 10 µM (MOLT-4 [13]): ≤ 42.6% |
| COc1cc2oc(-c3cccc(C(=O)Nc4ccc(Br)cc4)c3)cc(=O)c2c(OC)c1OC | Active | Active | Active | – | – | – | Active | Active | Active | – | – | – | Active | – | Active | inhibition (EKVX): Active; inhibition (A549): Active; inhibition (RXF 393): Active; inhibition (NCI-H322M): Active; inhibition (NCI-H460): Active; inhibition (NCI-H226): Active; inhibition (NCI-H23): Active; inhibition (HOP-62): Active |
